The text below walks through data of US20230265116A1, “DEGRADATION OF (EGFR) BY CONJUGATION OF EGFR INHIBITORS WITH E3 LIGASE LIGAND AND METHODS OF USE” (BEIGENE, LTD., priority 2020, published 2023).

Assay [1] deals with T1, EGFR L858R/T790M/C797S (BaF3-LTC cells) (Homo sapiens, UniProt P00533, C797S/L858R/T790M).
T1 construct: expressed in transfected cells; host or cells: BaF3
Description: EGFR degradation HTRF assay, BaF3-LTC cells. Conditions: BaF3-LTC cells; for DC50: EGFR degradation, IC50 (DC50) from curve fit, read-out: DC50(nM) BaF3-LTC; for Dmax: maximum percentage of inhibition (degradation), read-out: Dmax (%) BaF3-LTC. It counts as cell-based. The method, boiled down: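 Cells treated 16 h at 37 °C, 5% CO2 in medium with 0.2% DMSO; top final concentration 10 uM, 5-fold dilution, 8 doses. Lysates read by HTRF (665/620 nm); degradation % versus DMSO high control, DC50 from four-parameter fit, Dmax as maximal degradation.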
On the technique in general: In TR-FRET formats the signal depends on donor and acceptor labels being close together.

The test system of assay [2] is EGFR Del19/T790M/C797S (H1975-clone #28). Description: EGFR degradation HTRF assay, H1975-clone #28 DTC cells. The assay is classed as cell-based. The following applies: H1975 # 28 DTC cells; for DC50: EGFR degradation, IC50 (DC50) from curve fit, read-out: DC50(nM) H1975 # 28 DTC; for Dmax (%) H1975 # 28 DTC: maximum percentage of inhibition (degradation). A digest of the protocol: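 Read-out is an HTRF EGFR signal (337 nm excitation, 665/620 nm) from lysates of mutant-EGFR H1975 clones in which only the exogenous EGFR survives knockout. Treatment ran 16h at 37° C. from 10 uM final downward in 5-fold steps. DC50 comes from a logistic fit and Dmax is the maximal degradation.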

T1 sequence (P00533 25-1210 T790M/C797S/L858R): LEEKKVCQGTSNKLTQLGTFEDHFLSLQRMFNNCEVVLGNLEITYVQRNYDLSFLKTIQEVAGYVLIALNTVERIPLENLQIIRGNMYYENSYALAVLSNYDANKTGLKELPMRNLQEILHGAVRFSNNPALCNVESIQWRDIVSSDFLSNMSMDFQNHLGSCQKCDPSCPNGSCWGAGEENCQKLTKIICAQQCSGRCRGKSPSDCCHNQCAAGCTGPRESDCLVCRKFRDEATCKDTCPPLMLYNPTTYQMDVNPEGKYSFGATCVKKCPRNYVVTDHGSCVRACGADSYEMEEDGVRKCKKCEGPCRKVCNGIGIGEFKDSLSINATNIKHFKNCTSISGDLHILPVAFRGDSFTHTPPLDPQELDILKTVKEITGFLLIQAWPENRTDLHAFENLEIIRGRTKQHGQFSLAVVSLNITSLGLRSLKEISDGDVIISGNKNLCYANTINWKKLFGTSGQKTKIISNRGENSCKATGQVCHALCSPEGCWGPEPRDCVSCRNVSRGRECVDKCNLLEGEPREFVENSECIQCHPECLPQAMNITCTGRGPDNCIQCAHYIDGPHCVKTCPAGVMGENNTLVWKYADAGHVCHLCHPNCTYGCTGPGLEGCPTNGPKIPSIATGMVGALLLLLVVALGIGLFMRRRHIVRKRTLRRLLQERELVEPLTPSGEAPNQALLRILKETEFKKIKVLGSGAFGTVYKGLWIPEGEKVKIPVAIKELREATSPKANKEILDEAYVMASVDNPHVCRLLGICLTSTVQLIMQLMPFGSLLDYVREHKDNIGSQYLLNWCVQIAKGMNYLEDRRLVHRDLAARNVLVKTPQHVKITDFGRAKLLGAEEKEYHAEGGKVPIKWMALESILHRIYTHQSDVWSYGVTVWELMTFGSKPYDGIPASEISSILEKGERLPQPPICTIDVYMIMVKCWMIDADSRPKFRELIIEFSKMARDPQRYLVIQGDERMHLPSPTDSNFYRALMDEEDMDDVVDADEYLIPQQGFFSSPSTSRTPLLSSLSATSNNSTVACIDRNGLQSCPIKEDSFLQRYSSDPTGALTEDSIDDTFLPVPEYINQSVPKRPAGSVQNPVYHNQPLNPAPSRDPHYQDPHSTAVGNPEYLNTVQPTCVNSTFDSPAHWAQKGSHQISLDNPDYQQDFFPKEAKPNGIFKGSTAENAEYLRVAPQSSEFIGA

As for `CCOc1cc(N2CCC(N3CCN(C(=O)[C@H]4CN(c5cc(F)c([C@H]6CCC(=O)NC6=O)c(F)c5)CC4(C)C)CC3)CC2)c(C)cc1Nc1ncc(Br)c(Nc2ccc3nc(C)ccc3c2P(C)(C)=O)n1` [Example 727, (R)-3-(4-((R)-4-(4-(1-(4-((5-bromo-4-((5-(dimethylphosphoryl)-2-methylquinolin-6-yl)amino)pyrimidin-2-yl)amino)-5-ethoxy-2-methylphenyl)piperidin-4-yl)piperazine-1-carbonyl)-3,3-dimethylpyrrolidin-1-yl)-2,6-difluorophenyl)piperidine-2,6-dione], in assay [1], the DC50 (commonly the concentration giving 50% degradation) worked out at 8.61 nM. Further, in assay [2], the DC50 stood at 4.29 nM and the “Dmax (%) H1975 # 28 DTC” value came out at 77.39%.

For the molecule `CCOc1cc(N2CCC(N3CCN(CCc4cc(F)c([C@H]5CCC(=O)NC5=O)c(F)c4)CC3)CC2)c(CC)cc1Nc1ncc(Br)c(Nc2ccc3nc(C)c(F)cc3c2P(C)(C)=O)n1` [Example 728, (R)-3-(4-(2-(4-(1-(4-((5-bromo-4-((5-(dimethylphosphoryl)-3-fluoro-2-methylquinolin-6-yl)amino)pyrimidin-2-yl)amino)-5-ethoxy-2-ethylphenyl)piperidin-4-yl)piperazin-1-yl)ethyl)-2,6-difluorophenyl)piperidine-2,6-dione], the DC50 in assay [1] was 9.14 nM. Further, in assay [2], the DC50 came out at 0.803 nM and the “Dmax (%) H1975 # 28 DTC” value stood at 87.57%.

As to `COc1cc(N2CCC(N3CCN(C(=O)[C@H]4CN(c5cc(F)c([C@H]6CCC(=O)NC6=O)c(F)c5)CC4(C)C)CC3)CC2)c(C)cc1Nc1ncc(Br)c(Nc2ccc3nc(C)c(F)cc3c2P(C)(C)=O)n1` [Example 729, (R)-3-(4-((R)-4-(4-(1-(4-((5-bromo-4-((5-(dimethylphosphoryl)-3-fluoro-2-methylquinolin-6-yl)amino)pyrimidin-2-yl)amino)-5-methoxy-2-methylphenyl)piperidin-4-yl)piperazine-1-carbonyl)-3,3-dimethylpyrrolidin-1-yl)-2,6-difluorophenyl)piperidine-2,6-dione], the half-maximal degradation concentration (DC50) in assay [1] was determined as 5.59 nM. Further, in assay [2], the half-maximal degradation concentration (DC50) was determined as 1.13 nM and the “Dmax (%) H1975 # 28 DTC” value amounted to 88.94%.

With `CCOc1cc(N2CCC(N3CCN(CCc4cc(F)c([C@H]5CCC(=O)NC5=O)c(F)c4)CC3)CC2)c(CC)cc1Nc1ncc(Cl)c(Nc2cc(F)c3nc(CC)ccc3c2P(C)(C)=O)n1` [Example 730, (R)-3-(4-(2-(4-(1-(4-((5-chloro-4-((5-(dimethylphosphoryl)-2-ethyl-8-fluoroquinolin-6-yl)amino)pyrimidin-2-yl)amino)-5-ethoxy-2-ethylphenyl)piperidin-4-yl)piperazin-1-yl)ethyl)-2,6-difluorophenyl)piperidine-2,6-dione], the DC50 turned out to be 81.1 nM in assay [1] and 8.9 nM in assay [2]. For the same molecule, in assay [2], the “Dmax (%) H1975 # 28 DTC” value worked out at 81.41%.

In the case of `CCOc1cc(N2CCC(N3CCN(CCc4c(F)cc(F)c5c4oc(=O)n5C4CCC(=O)NC4=O)CC3)CC2)c(CC)cc1Nc1ncc(Br)c(Nc2ccc3nc(CC)ccc3c2P(C)(C)=O)n1` (centres unmarked) [Example 731, 3-(7-(2-(4-(1-(4-((5-bromo-4-((5-(dimethylphosphoryl)-2-ethylquinolin-6-yl)amino)pyrimidin-2-yl)amino)-5-ethoxy-2-ethylphenyl)piperidin-4-yl)piperazin-1-yl)ethyl)-4,6-difluoro-2-oxobenzo[d]oxazol-3(2H)-yl)piperidine-2,6-dione], the results for the DC50 in assay [1] and in assay [2] were 42.5 nM and 4.55 nM, respectively. In addition, the “Dmax (%) H1975 # 28 DTC” value in assay [2] is recorded as 93.44%.

In the case of `COc1cc(N2CCC(N3CCN(C(=O)[C@@H]4CCN(c5cc(F)c([C@H]6CCC(=O)NC6=O)c(F)c5)C4)CC3)CC2)c(C)cc1Nc1ncc(Br)c(Nc2ccc3nc(C)c(F)cc3c2P(C)(C)=O)n1` [Example 732, (R)-3-(4-((R)-3-(4-(1-(4-((5-bromo-4-((5-(dimethylphosphoryl)-3-fluoro-2-methylquinolin-6-yl)amino)pyrimidin-2-yl)amino)-5-methoxy-2-methylphenyl)piperidin-4-yl)piperazine-1-carbonyl)pyrrolidin-1-yl)-2,6-difluorophenyl)piperidine-2,6-dione], in assay [1], the DC50 turned out to be 4.07 nM. Further, in assay [2], the DC50 worked out at 0.624 nM and the “Dmax (%) H1975 # 28 DTC” value is 86.49%.

As to `CCOc1cc(N2CCC(N3CCN(CCc4cc(F)c([C@H]5CCC(=O)NC5=O)c(F)c4)CC3)CC2)c(CC)cc1Nc1ncc(C)c(Nc2cc(F)c3nc(CC)ccc3c2P(C)(C)=O)n1` [Example 733, (R)-3-(4-(2-(4-(1-(4-((4-((5-(dimethylphosphoryl)-2-ethyl-8-fluoroquinolin-6-yl)amino)-5-methylpyrimidin-2-yl)amino)-5-ethoxy-2-ethylphenyl)piperidin-4-yl)piperazin-1-yl)ethyl)-2,6-difluorophenyl)piperidine-2,6-dione], in assay [1], the DC50 was found to be 89.9 nM. In assay [2], the DC50 was 7.25 nM and the “Dmax (%) H1975 # 28 DTC” value is given as 84.52%.

Turning to `CCc1ccc2c(P(C)(C)=O)c(Nc3nc(Nc4cc(CC)c(N5CCC(N6CCN(CCCOc7cc(F)c([C@H]8CCC(=O)NC8=O)c(F)c7)CC6)CC5)cc4OC)ncc3Br)ccc2n1` [Example 734, (R)-3-(4-(3-(4-(1-(4-((5-bromo-4-((5-(dimethylphosphoryl)-2-ethylquinolin-6-yl)amino)pyrimidin-2-yl)amino)-2-ethyl-5-methoxyphenyl)piperidin-4-yl)piperazin-1-yl)propoxy)-2,6-difluorophenyl)piperidine-2,6-dione], in assay [1], the DC50 worked out at 7.79 nM and the Dmax (commonly the greatest extent of degradation seen) came out at 92.2%. In assay [2], the DC50 stood at 0.9 nM and the “Dmax (%) H1975 # 28 DTC” value amounted to 76.3%.

Take `CCOc1cc(N2CCC(N3CCN(CCCOc4cc(F)c([C@H]5CCC(=O)NC5=O)c(F)c4)CC3)CC2)c(CC)cc1Nc1ncc(Br)c(Nc2ccc3c(=O)n(CC)ncc3c2P(C)(C)=O)n1` [Example 735, (R)-3-(4-(3-(4-(1-(4-((5-bromo-4-((5-(dimethylphosphoryl)-2-ethyl-1-oxo-1,2-dihydrophthalazin-6-yl)amino)pyrimidin-2-yl)amino)-5-ethoxy-2-ethylphenyl)piperidin-4-yl)piperazin-1-yl)propoxy)-2,6-difluorophenyl)piperidine-2,6-dione]: in assay [1], the half-maximal degradation concentration (DC50) was 18 nM and the Dmax was 87.4%. Besides, in assay [2], the DC50 turned out to be 0.641 nM and the “Dmax (%) H1975 # 28 DTC” value came out at 80.09%.

Consider `CCOc1cc(N2CCC(N3CCN(CCc4c(F)ccc5c4n(C)c(=O)n5C4CCC(=O)NC4=O)CC3)CC2)c(CC)cc1Nc1ncc(Br)c(Nc2ccc3nc(CC)ncc3c2P(C)(C)=O)n1` (centres unmarked) [Example 736, 3-(4-(2-(4-(1-(4-((5-bromo-4-((5-(dimethylphosphoryl)-2-ethylquinazolin-6-yl)amino)pyrimidin-2-yl)amino)-5-ethoxy-2-ethylphenyl)piperidin-4-yl)piperazin-1-yl)ethyl)-5-fluoro-3-methyl-2-oxo-2,3-dihydro-1H-benzol[d]imidazol-1-yl)piperidine-2,6-dione], for which the DC50 in assay [1] was determined as 4.01 nM. Further, in assay [2], the DC50 is 0.564 nM and the “Dmax (%) H1975 # 28 DTC” value is listed as 81.93%.
